Results reported in patent publication US20130059879A1, “Small Molecule Inhibitors of PFKFB3 and Glycolytic Flux and Their Methods of Use as Anti-Cancer Therapeutics” (UNIVERSITY OF LOUISVILLE RESEARCH FOUNDATION, INC., priority 2010, published 2013).
Values after ≈ are worked out from the molar mass of the structure shown. Where two headings read alike, the source gives them in different places.

Tests used:
[1] = Solubility in solvents and excipients, 1 hour at room temperature, HPLC; assay type: physicochemical; conditions: thermodynamic from solid
Procedure: Chemical properties of the compounds of the invention were investigated, including the solubility in several solvents and pharmaceutically accepted excipients. […] Briefly, selected compounds of the invention are dissolved in a small volume of the solvents/excipients of interest at room temperature over 1 hour in typically 1 ml and the concentration is measured by HPLC after filtration.

[2] = tested on: Jurkat cells; test: Inhibition of 14C-2-deoxyglucose uptake; assay type: cell-based; conditions: Homo sapiens, 3 hours
Procedure: Inhibition of PFKFB3 results in inhibiting glycolysis. Several feedback or feedforward activation and inhibition mechanisms exist so that, by a feedback mechanism, inhibiting the activity of PFKFB3 may inhibit glucose uptake by cells. An assay was developed to determine if there was inhibition of glucose uptake following exposure to the compounds on the invention. Briefly, Jurkat cells were plated at 1×10^5/mL in RPM′ 1640 supplemented with 10% fetal bovine serum and 50 μg/mL gentamicin sulfate. Cells were immediately treated with vehicle or 5 μmol/L of the compound of the invention for 3 hours and subsequently placed in glucose-free RPMI 1640 for 30 min. ^14C-2-deoxyglucose (0.25 μCi/mL; Perkin Elmer) was added for an additional 60 min and cells were then washed three with ice-cold RPMI 1640 containing no glucose. Cell lysates were collected in 500 μL of 0.1% SDS, and scintillation counts (counts/min) were measured on 400 μL of lysate. Counts were normalized to protein concentration.

[3] = tested on: NCI-H82; test: Cancer cell proliferation, Alamar Blue assay, 72 hours; assay type: cell-based; conditions: Homo sapiens, NCI-H82, read-out: IC50 NCl-H82
Procedure: (§1) The ability of the compounds described herein to kill or inhibit the proliferation of cancer cells was measured using either the MTT assay, or the Alamar Blue assay, or the Cell Titer Glow® assay using 48 or 72 hours exposure. […] The procedures are briefly described below. Cells of the desired tumor cell line were plated at 2×10^5 cells/ml in 96 well plates. Twice the indicated concentrations of the compounds of the invention were added to cells the following day in an equal volume of media. 72 hours later, cells were lysed and subjected to ATP determination using the CellTiter Glo-Luminescent Cell Viability Assay kit (Promega, Madison, Wis.). Experiments were done in triplicate. When using the MTT assay or the Alamar blue assay, the experimental conditions are essentially similar; at the end of the incubation period, 20 microliters of the MTT solution is added per well and the samples are incubated for an additional four hours, rinsed, and the absorbance at 570 nm measured. […] Table 2 lists the IC50 values for the compounds of the invention in several cell lines including Jurkat, Calu-6, NCI-H82, U937, HCT-116, and MDA-MB-231 cancer cell lines.

[4] = tested on: HCT-116; test: as above; assay type: cell-based; conditions: Homo sapiens, HCT-116
Procedure: as §1

[5] = tested on: Jurkat; test: as above; assay type: cell-based; conditions: Homo sapiens, Jurkat
Procedure: as §1

[6] = tested on: Calu-6; test: as above; assay type: cell-based; conditions: Homo sapiens, Calu-6
Procedure: as §1

[7] = tested on: U937; test: as above; assay type: cell-based; conditions: Homo sapiens, U-937
Procedure: as §1

[8] = target: T1, PFKFB3 (Homo sapiens, UniProt Q16875); test: Inhibition of recombinant PFKFB3 kinase activity (ADP Glow assay); assay type: biochemical; conditions: 250 nM analog concentration; read-out: % Inhibition of PFKFB3 Enzymatic Activity
T1 construct: GST
Procedure: PFKFB3 was prepared by expression in E. coli and purified by GST column and column chromatography. […] The recombinant protein was pure and active as determined by the results of a kinase activity assay commercially available (such as ADP Glow® assay, […]). The same assay was used to determine the inhibition of the protein and the results are shown in Table 5 below (IC50 values or percent inhibition at a fixed concentration). Results confirmed that the compounds of the invention have low nanomolar IC50 values, interacting with PFKFB3 and inhibiting its enzymatic activity.

[9] = tested on: MDA-MB-231; test: Cancer cell proliferation, Alamar Blue assay, 72 hours; assay type: cell-based; conditions: Homo sapiens
Procedure: as §1

[10] = Microsomal stability in human liver microsomes; assay type: in vitro ADME
Procedure: Microsomal stability in vitro in different biologic media (liver microsomes, S9 fraction, hepatocytes) and species is ascertained to evaluate the rate at which a compound undergoes metabolism in the experimental in vitro conditions. Results for some compounds of the invention after a 60 minutes incubation period in human liver microsomes are shown in the Table 6 below. […] Experimental conditions are briefly described here: the stability in human liver microsomes of several compounds was done over […] at 37° C. using pooled mixed gender human liver microsomes. These liver microsomes were prepared at 1.0 mg/ml of microsomal protein in a 100 mM potassium phosphate pH 7.4 buffer with 1 mM NADPH. The media was incubated at 37° C. with the compound in solution in DMSO. The concentration of the compound was followed by LC/MS-MS as a function of time. Samples were assayed at t=0, 15, 30, and 60 minutes. Testosterone was used as a positive control. The same experiment was performed with mouse, rat or dog liver microsomes instead of human liver microsomes.

[11] = aqueous with cosolvent or surfactant or cyclodextrin, Cre:EtOH:Saline 5:5:90 mixture, 1 hour at room temperature, read-out: Solubility Cre:EtOH:Saline
[12] = ethanol, organic solvent or mixture, EtOH, 1 hour at room temperature, read-out: Solubility EtOH
[13] = organic solvent or mixture, 1:1 cremophor EL-P:ethanol mixture, 1 hour at room temperature, read-out: Solubility Cre:EtOH
[14] = organic solvent or mixture, Acetone, 1 hour at room temperature, read-out: Solubility Acetone
[15] = organic solvent or mixture, Cremophor, 1 hour at room temperature, read-out: Solubility Cremophor
[16] = organic solvent or mixture, DCM, 1 hour at room temperature, read-out: Solubility DCM
[17] = organic solvent or mixture, Tween 80, 1 hour at room temperature, read-out: Solubility Tween 80
[18] = organic solvent or mixture, Tween80:EtOH 6:4 mixture, 1 hour at room temperature, read-out: Solubility Twee80:EtOH
[19] = 60 min incubation, 1.0 mg/ml microsomal protein, 1 mM NADPH, 37° C.

T1 sequence (Q16875 whole entry, species assumed): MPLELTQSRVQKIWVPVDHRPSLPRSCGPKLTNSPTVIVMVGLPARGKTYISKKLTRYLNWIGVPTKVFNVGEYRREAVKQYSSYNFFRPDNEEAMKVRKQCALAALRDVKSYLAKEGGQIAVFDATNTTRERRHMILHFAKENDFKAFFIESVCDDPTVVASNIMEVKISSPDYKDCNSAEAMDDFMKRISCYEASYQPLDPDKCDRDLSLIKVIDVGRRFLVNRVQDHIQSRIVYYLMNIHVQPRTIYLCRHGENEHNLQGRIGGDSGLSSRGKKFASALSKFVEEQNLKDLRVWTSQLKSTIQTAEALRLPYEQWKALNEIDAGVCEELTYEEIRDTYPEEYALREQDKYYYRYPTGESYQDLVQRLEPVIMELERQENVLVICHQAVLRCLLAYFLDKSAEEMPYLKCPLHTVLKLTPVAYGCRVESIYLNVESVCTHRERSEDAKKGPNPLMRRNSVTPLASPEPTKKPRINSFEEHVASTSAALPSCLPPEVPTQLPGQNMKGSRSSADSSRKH

COc1ccccc1C(=O)c1cc2c(ccc3ccccc32)[nH]1 [ACT-PFK-098, (3H-Benzo[e]indol-2-yl)-(2-methoxy-phenyl)-methanone]
solubility at 1 h [1, 11]: 2400 µg/mL (≈ 7.96 mM) | solubility at 1 h [1, 12]: 4600 µg/mL (≈ 15.3 mM) | solubility at 1 h [1, 13]: 29000 µg/mL (≈ 96.2 mM) | solubility at 1 h [1, 14]: 9300 µg/mL (≈ 30.9 mM) | solubility at 1 h [1, 15]: 30200 µg/mL (≈ 100 mM) | solubility at 1 h [1, 16]: 10400 µg/mL (≈ 34.5 mM) | solubility at 1 h [1, 17]: 37000 µg/mL (≈ 123 mM) | solubility at 1 h [1, 18]: 32800 µg/mL (≈ 109 mM) | inhibition at 5 µM [2]: 25% | IC50 [3]: 210 nM | IC50 [4]: 490 nM | IC50 [5]: 405 nM | IC50 [6]: 220 nM | IC50 [7]: 40 nM

O=C(c1ccc(O)cc1)c1cc2c(ccc3ccccc32)[nH]1 [ACT-PFK-100, (3H-Benzo[e]indol-2-yl)-(4-hydroxy-phenyl)-methanone]
inhibition at 0.25 µM [8]: 0%

O=C(c1ccccc1)c1cc2c3c(ccc2[nH]1)CCCC3 [ACT-PFK-107, Phenyl-(6,7,8,9-tetrahydro-3H-benzo[e]indol-2-yl)-methanone]
IC50 [9]: 11600 nM | IC50 [3]: 10100 nM | IC50 [4]: > 100000 nM | IC50 [5]: 6900 nM | IC50 [6]: 7250 nM | IC50 [7]: 2850 nM | HLM, Mean metabolized (%) ([10]; 0 min): 0.0% | HLM, Mean metabolized (%) [10, 19]: 100.0%

COc1cc(C(=O)c2cc3c(ccc4ccccc43)[nH]2)ccc1O [ACT-PFK-108, (3H-Benzo[e]indol-2-yl)-(4-hydroxy-3-methoxylthenyl)-methanone]
solubility at 1 h [1, 11]: 4800 µg/mL (≈ 15.1 mM) | solubility at 1 h [1, 12]: 9900 µg/mL (≈ 31.2 mM) | solubility at 1 h [1, 13]: 78100 µg/mL (≈ 246 mM) | solubility at 1 h [1, 14]: 12800 µg/mL (≈ 40.3 mM) | solubility at 1 h [1, 15]: 37600 µg/mL (≈ 118 mM) | solubility at 1 h [1, 16]: 11100 µg/mL (≈ 35 mM) | solubility at 1 h [1, 17]: 16900 µg/mL (≈ 53.3 mM) | solubility at 1 h [1, 18]: 10300 µg/mL (≈ 32.5 mM) | inhibition at 5 µM [2]: 2% | IC50 [9]: 90 nM | IC50 [3]: 360 nM | IC50 [4]: 475 nM | IC50 [5]: 545 nM | IC50 [6]: 360 nM | IC50 [7]: 205 nM | HLM, Mean metabolized (%) ([10]; 0 min): 0.0% | HLM, Mean metabolized (%) [10, 19]: 73.3%

COc1cc(C(=O)c2cc3c(ccc4ccccc43)[nH]2)ccc1OCc1ccccc1 [ACT-PFK-109, (3H-Benzo[e]indol-2-yl)-(4-benzyloxy-3-methoxy-phenyl)-methanone]
inhibition at 5 µM [2]: 42% | IC50 [9]: > 100000 nM | IC50 [3]: > 100000 nM | IC50 [4]: > 100000 nM | IC50 [5]: > 100000 nM | IC50 [6]: 64500 nM | IC50 [7]: > 100000 nM

O=C(O)c1ccc(C(=O)c2cc3c(ccc4ccccc43)[nH]2)cc1 [ACT-PFK-111, 4-(3H-Benzo[e]indole-2-carbonyl)-benzoic acid]
IC50 [9]: > 100000 nM | IC50 [3]: 40200 nM | IC50 [4]: 63500 nM | IC50 [5]: > 100000 nM | IC50 [6]: 57500 nM | IC50 [7]: 57200 nM | inhibition at 0.25 µM [8]: 54.3%

COc1cc(C(=O)c2cc3c(ccc4ccccc43)[nH]2)ccn1 [ACT-PFK-115, (3H-Benzo[e]indol-2-yl)-(2-methoxy-pyridin-4-yl)-methanone]
IC50 [9]: 620 nM | IC50 [3]: 6050 nM | IC50 [4]: 8200 nM | IC50 [5]: 4550 nM | IC50 [6]: 2180 nM | IC50 [7]: 1070 nM | HLM, Mean metabolized (%) ([10]; 0 min): 0.0% | HLM, Mean metabolized (%) [10, 19]: 99.6%

O=C(c1ccncc1)c1cc2c(cc(F)c3ccccc32)[nH]1 [ACT-PFK-118, (5-Fluoro-3H-benzo[e]indol-2-yl)-pyridin-4-yl-methanone]
solubility at 1 h [1, 11]: 100 µg/mL (≈ 0.344 mM) | solubility at 1 h [1, 12]: 200 µg/mL (≈ 0.689 mM) | solubility at 1 h [1, 13]: 1000 µg/mL (≈ 3.44 mM) | solubility at 1 h [1, 14]: 600 µg/mL (≈ 2.07 mM) | solubility at 1 h [1, 15]: 2200 µg/mL (≈ 7.58 mM) | solubility at 1 h [1, 16]: 300 µg/mL (≈ 1.03 mM) | solubility at 1 h [1, 17]: 1600 µg/mL (≈ 5.51 mM) | solubility at 1 h [1, 18]: 1300 µg/mL (≈ 4.48 mM) | IC50 [9]: 673 nM | IC50 [3]: 385 nM | IC50 [4]: 1700 nM | IC50 [5]: 240 nM | IC50 [6]: 420 nM | IC50 [7]: 95 nM | HLM, Mean metabolized (%) ([10]; 0 min): 0.0% | HLM, Mean metabolized (%) [10, 19]: 22.2% | inhibition at 0.25 µM [8]: 0%

COc1cc(C(=O)c2cc3c(cc(F)c4ccccc43)[nH]2)ccc1O [ACT-PFK-119, (5-Fluoro-3H-benzo[e]indol-2-yl)-(4-hydroxy-3-methoxy-phenyl)-methanone]
solubility at 1 h [1, 11]: 300 µg/mL (≈ 0.895 mM) | solubility at 1 h [1, 12]: 1000 µg/mL (≈ 2.98 mM) | solubility at 1 h [1, 13]: 6100 µg/mL (≈ 18.2 mM) | solubility at 1 h [1, 14]: 5500 µg/mL (≈ 16.4 mM) | solubility at 1 h [1, 15]: 14400 µg/mL (≈ 42.9 mM) | solubility at 1 h [1, 16]: 700 µg/mL (≈ 2.09 mM) | solubility at 1 h [1, 17]: 11400 µg/mL (≈ 34 mM) | solubility at 1 h [1, 18]: 8600 µg/mL (≈ 25.6 mM) | IC50 [9]: 620 nM | IC50 [3]: 315 nM | IC50 [4]: 365 nM | IC50 [5]: 110 nM | IC50 [6]: 70 nM | IC50 [7]: 70 nM | HLM, Mean metabolized (%) ([10]; 0 min): 0.0% | HLM, Mean metabolized (%) [10, 19]: 79.2% | inhibition at 0.25 µM [8]: 3.7%

Cc1ccc(C(=O)c2cc3c(ccc4ccccc43)[nH]2)cc1 [ACT-PFK-123, (3H-Benzo[e]indol-2-yl)-p-tolyl-methanone]
IC50 [3]: 315 nM | IC50 [5]: 100 nM | IC50 [6]: 79 nM | inhibition at 0.25 µM [8]: 19.4%
